Measurements taken from PubChem BioAssay (NCI).
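Grown in 96-well plates, cells were treated for 48 hours with each compound at five concentrations. Insufficient inhibition: endpoint recorded as highest concentration tested. TGI denotes the concentration required for complete inhibition of growth.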

Legend:
Assay in all cases: NCI-60 cell line screen, 48 h
A498 renal = system: A498 renal
CCRF-CEM leukemia = system: CCRF-CEM leukemia
COLO 205 colon = system: COLO 205 colon
EKVX NSCLC = system: EKVX NSCLC
M14 melanoma = system: M14 melanoma
NCI-H460 lung = system: NCI-H460 lung
NCI-H522 lung = system: NCI-H522 lung
NCI/ADR-RES ovarian = system: NCI/ADR-RES ovarian
RPMI-8226 leukemia = system: RPMI-8226 leukemia
SK-MEL-5 melanoma = system: SK-MEL-5 melanoma
SK-OV-3 ovarian = system: SK-OV-3 ovarian
SNB-75 CNS = system: SNB-75 CNS
SW-620 colon = system: SW-620 colon
TK-10 renal = system: TK-10 renal

| SMILES | TGI (A498 renal) | TGI (CCRF-CEM leukemia) | TGI (COLO 205 colon) | TGI (EKVX NSCLC) | TGI (M14 melanoma) | TGI (NCI-H460 lung) | TGI (NCI-H522 lung) | TGI (NCI/ADR-RES ovarian) | TGI (RPMI-8226 leukemia) | TGI (SK-MEL-5 melanoma) | TGI (SK-OV-3 ovarian) | TGI (SNB-75 CNS) | TGI (SW-620 colon) | TGI (TK-10 renal) |
| --- | --- | --- | --- | --- | --- | --- | --- | --- | --- | --- | --- | --- | --- | --- |
| CC(=O)NNc1nc(C)c(C(/C=C/c2ccccc2O)=N/NC(=O)c2ccncc2)s1 | > 100 µM | > 100 µM | > 100 µM | > 100 µM | > 100 µM | > 100 µM | > 100 µM | > 100 µM | > 100 µM | > 100 µM | > 100 µM | > 100 µM | > 100 µM | > 100 µM |
| C#CCOC(=O)C(N)CS (stereo not given) | > 100 µM | > 100 µM | > 100 µM | > 100 µM | > 100 µM |  | > 100 µM | > 100 µM | > 100 µM | > 100 µM | > 100 µM | > 100 µM | > 100 µM | > 100 µM |
| NC(=Nc1ccc(Cl)c(Cl)c1)c1ccccc1N | 55.1 µM | > 100 µM | 52.8 µM | > 100 µM | 41.4 µM | > 100 µM | 32.6 µM | 95.5 µM | 39.3 µM | 54.7 µM | > 100 µM | 75.7 µM | > 100 µM | > 100 µM |
| CCC/C(Cl)=N\OC(=O)Nc1ccc(Br)cc1 | 32.2 µM | 4.3 µM | 7.19 µM | 29 µM | 25.2 µM | 34.6 µM | 3.53 µM | 40.5 µM | 12.2 µM | 27.7 µM | 30.5 µM | 29 µM | 5.52 µM | 27.2 µM |
| C=CCN1C(=O)N/C(=C\c2ccc(Cl)cc2)C1=O | > 100 µM | > 100 µM | > 100 µM | > 100 µM | > 100 µM | > 100 µM | > 100 µM | > 100 µM | > 100 µM | > 100 µM | > 100 µM | > 100 µM | > 100 µM | > 100 µM |
| COc1ccc2cc(CNCCCN3CCN(CCCNCc4ccc5cc(OC)ccc5c4)CC3)ccc2c1 | 3.07 µM | 1.3 µM | 2.83 µM | 3.18 µM | 3.01 µM | 2.87 µM | 3.81 µM | 6.51 µM | 0.577 µM | 3.05 µM | 2.72 µM | 3.08 µM | 0.982 µM | 3.3 µM |
| CC1=C(C#N)C(=O)N(/N=C/c2ccc(Cl)cc2)C(=O)/C1=c1\o/c(=C2/C(=O)N(/N=C/c3ccc(Cl)cc3)C(=O)C(C#N)=C2C)c2nccnc12 | > 100 µM | > 100 µM | > 100 µM | > 100 µM | > 100 µM | > 100 µM | > 100 µM | > 100 µM | > 100 µM | > 100 µM | > 100 µM | 85.3 µM | > 100 µM |  |
| C=CCNC(NCC=C)=C(C(Cl)=C(Cl)Cl)[N+](=O)[O-] | > 100 µM | > 100 µM | 37.2 µM | > 100 µM | > 100 µM | > 100 µM |  | > 100 µM | > 100 µM |  | > 100 µM | > 100 µM | 55.7 µM |  |
| COc1ccc(-c2cc(=O)c3c(O)c(OC)c(O)cc3o2)cc1O | 65.8 µM | > 31.8 µM | 59.6 µM | > 87.1 µM | > 75 µM | 43.6 µM | 9.53 µM | > 21.2 µM | > 23.6 µM | 14.9 µM | > 93.8 µM | 60 µM | > 100 µM | > 100 µM |
| C=C1[C@H](OCC(C)C)[C@@H](OCC(C)C)[C@@H](O)C(C)(C)/C=C/[C@H](C)C(=O)[C@@]2(O)C[C@H](C)[C@H](O)[C@@H]2[C@H]1OCC(C)C | > 7.5 µM |  | > 7.5 µM |  | > 7.5 µM | > 7.5 µM | > 7.5 µM | > 7.5 µM |  | > 7.5 µM | > 7.5 µM | > 7.5 µM | > 7.5 µM | > 7.5 µM |
| CCOP(=O)(CCC(O)CNc1nc(N)nc(Cl)c1N=Nc1ccc(Cl)cc1)OCC (stereo not given) | 27.7 µM | 46.5 µM | 27.4 µM | 40.6 µM |  | 26.1 µM | 23 µM | 46.9 µM | 42.7 µM | 25.7 µM | 58.9 µM | 49.3 µM | 42.7 µM | 54.1 µM |
| COC(=O)C1=C(C(=O)OC)C(C(=O)c2ccccc2)N2N=C(c3ccc(Cl)cc3)C=CC12 (stereo not given) | > 100 µM | > 100 µM | > 100 µM | > 100 µM | > 100 µM | > 100 µM | 43.5 µM | > 100 µM | 80.1 µM | > 100 µM | > 100 µM |  | > 100 µM | > 100 µM |
| CCOC(=O)Cc1nc2nn(Cc3ccccc3)cc2c(=O)[nH]1 | > 100 µM | > 100 µM | > 100 µM | > 100 µM |  | > 100 µM |  | > 100 µM | > 100 µM | > 100 µM | > 100 µM | > 100 µM | > 100 µM | > 100 µM |
| COc1ccc(OC)c2c(=O)cc(-c3ccccc3)[nH]c12 | > 100 µM | > 100 µM | > 100 µM | > 100 µM | > 100 µM | > 100 µM | > 100 µM | > 100 µM | > 100 µM |  | > 100 µM | > 100 µM | > 100 µM | > 100 µM |
| CC(=O)CCC(=O)CC(O)(C(F)(F)F)C(F)(F)F | 17.6 µM | 51 µM | 34.4 µM |  | 34.9 µM | 38.6 µM |  | 58.7 µM | 49.8 µM | 33.2 µM |  | 65.2 µM | 42.8 µM | 44.1 µM |
| COc1c(C(=O)O)cccc1-c1cccc(C(=O)NCCN(CCNC(=O)c2cccc(-c3cccc(C(=O)O)c3OC)c2OC)CCNC(=O)c2cccc(-c3cccc(C(=O)O)c3OC)c2OC)c1OC | 96.2 µM | > 100 µM | 62.9 µM | > 100 µM |  | > 100 µM | 75.8 µM | > 100 µM | 65.2 µM | 37.6 µM | > 100 µM | > 100 µM | > 100 µM | > 100 µM |
| CSC1=N/C(=C\c2ccc(Cl)cc2)C(=O)N1CN1CCOCC1 | > 100 µM | > 100 µM | > 100 µM | > 100 µM | > 100 µM |  | > 100 µM | > 100 µM | > 100 µM | > 100 µM | > 100 µM | > 100 µM | > 100 µM | > 100 µM |
